Patent US20130029928A1 (priority 2010, published 2013)
Where two headings read alike, the source gives them in different places.

Assay: Phase I study CXR1002-001: plasma pharmacokinetics (LC-MS/MS)
Format: in vivo, human
Settings: human, plasma, plasma; for concentration at 336 hr: 336 hr (Day 15)
Source text: PK samples, PD (fasting) samples, blood glucose, and blood triglyceride samples, were taken over a 6-week period.
Dose limiting toxicity (DLT) will be based on the toxicity assessments over the first 3-week period of the repeat dosing schedule. PK samples (single blood sample) were taken on the following basis: • Every 6 weeks during the repeat dosing phase • If dosing is interrupted or stopped, samples will be taken at intervals according to patient convenience • PK sampling for safety evaluation may take place at any time, as clinically indicated
Plasma samples were collected after the single 50 mg dose at the following timepoints: Pre-dose, and then 0.25, 0.5, 0.75, 1, 1.5, 2, 3, 4, 6, 24, 48, and 72 hours after administration and then once weekly at weeks 2, 3, 4, 5, and 6 (days 8, 15, 22, 29, and 36). For patients treated with the weekly repeat dose, plasma samples were collected at the following timepoints: Pre-dose and then 2, 3, 4 and 24 hours after administration for a total of 6 weeks. Thereafter a single sample was collected every 6 weeks for monitoring of exposure during long term treatment. Plasma samples were processed at site and stored at −80° C. prior to batch shipment to the analytical laboratory.

Q: With `O=C(O)C(F)(F)C(F)(F)C(F)(F)C(F)(F)C(F)(F)C(F)(F)C(F)(F)F` [CXR1002] as the molecule, how does the concentration at 4 hr (oral, 1200 mg, Patient 034, 1200 mg, person, 4 hr, read-out: Concentration) read?
A: Its concentration at 4 hr is 560 µM.

Q: What about the concentration at 24 hr (oral, 1200 mg, Patient 034, 1200 mg, person, 24 hr (Day 2), read-out: Concentration) of the same molecule?
A: The concentration at 24 hr was 409 µM.

Q: What about the concentration at 168 hr (oral, 1200 mg, Patient 034, 1200 mg, person, 168 hr (Day 8), read-out: Concentration) of the same molecule?
A: Its concentration at 168 hr is 351 µM.

Q: And the concentration at 170 hr (oral, 1200 mg, Patient 034, 1200 mg, person, 170 hr, read-out: Concentration)?
A: The concentration at 170 hr was 893 µM.

Q: And the concentration at 171 hr (oral, 1200 mg, Patient 034, 1200 mg, person, 171 hr, read-out: Concentration)?
A: The concentration at 171 hr was 771 µM.

Q: And the concentration at 172 hr (oral, 1200 mg, Patient 034, 1200 mg, person, 172 hr, read-out: Concentration)?
A: Its concentration at 172 hr is 730 µM.

Q: What about the concentration at 192 hr (oral, 1200 mg, Patient 034, 1200 mg, person, 192 hr (Day 9), read-out: Concentration) of the same molecule?
A: Its concentration at 192 hr is 722 µM.

Q: And the concentration at 336 hr (oral, 1200 mg, Patient 034, 1200 mg, person, read-out: Concentration)?
A: Its concentration at 336 hr is 644 µM.

Q: And the concentration at 338 hr (oral, 1200 mg, Patient 034, 1200 mg, person, 338 hr, read-out: Concentration)?
A: The concentration at 338 hr was 1030 µM.

Q: And the concentration at 339 hr (oral, 1200 mg, Patient 034, 1200 mg, person, 339 hr, read-out: Concentration)?
A: Its concentration at 339 hr is 1120 µM.

Q: And the concentration at 340 hr (oral, 1200 mg, Patient 034, 1200 mg, person, 340 hr, read-out: Concentration)?
A: Its concentration at 340 hr is 955 µM.

Q: What about the concentration at 360 hr (oral, 1200 mg, Patient 034, 1200 mg, person, 360 hr (Day 16), read-out: Concentration) of the same molecule?
A: The concentration at 360 hr was 1020 µM.

Q: What about the concentration at 504 hr (oral, 1200 mg, Patient 034, 1200 mg, person, 504 hr (Day 22), read-out: Concentration) of the same molecule?
A: The concentration at 504 hr was 924 µM.

Q: And the concentration at 506 hr (oral, 1200 mg, Patient 034, 1200 mg, person, 506 hr, read-out: Concentration)?
A: Its concentration at 506 hr is 1350 µM.

Q: And the concentration at 507 hr (oral, 1200 mg, Patient 034, 1200 mg, person, 507 hr, read-out: Concentration)?
A: Its concentration at 507 hr is 1220 µM.

Q: What about the concentration at 508 hr (oral, 1200 mg, Patient 034, 1200 mg, person, 508 hr, read-out: Concentration) of the same molecule?
A: Its concentration at 508 hr is 1440 µM.

Q: What about the concentration at 528 hr (oral, 1200 mg, Patient 034, 1200 mg, person, 528 hr (Day 23), read-out: Concentration) of the same molecule?
A: The concentration at 528 hr was 1360 µM.

Q: What about the concentration at 672 hr (oral, 1200 mg, Patient 034, 1200 mg, person, 672 hr (Day 29), read-out: Concentration) of the same molecule?
A: Its concentration at 672 hr is 1080 µM.

Q: And the concentration at 674 hr (oral, 1200 mg, Patient 034, 1200 mg, person, 674 hr, read-out: Concentration)?
A: The concentration at 674 hr was 1310 µM.

Q: And the concentration at 675 hr (oral, 1200 mg, Patient 034, 1200 mg, person, 675 hr, read-out: Concentration)?
A: Its concentration at 675 hr is 1450 µM.

Q: And the concentration at 676 hr (oral, 1200 mg, Patient 034, 1200 mg, person, 676 hr, read-out: Concentration)?
A: Its concentration at 676 hr is 1380 µM.

Q: What about the concentration at 696 hr (oral, 1200 mg, Patient 034, 1200 mg, person, 696 hr (Day 30), read-out: Concentration) of the same molecule?
A: The concentration at 696 hr was 1310 µM.

Q: What about the concentration at 2 hr (oral, 1200 mg, Patient 035, 1200 mg, person, 2 hr, read-out: Concentration) of the same molecule?
A: The concentration at 2 hr was 298 µM.

Q: What about the concentration at 3 hr (oral, 1200 mg, Patient 035, 1200 mg, person, 3 hr, read-out: Concentration) of the same molecule?
A: Its concentration at 3 hr is 196 µM.

Q: What about the concentration at 4 hr (oral, 1200 mg, Patient 035, 1200 mg, person, 4 hr, read-out: Concentration) of the same molecule?
A: The concentration at 4 hr was 317 µM.

Q: What about the concentration at 24 hr (oral, 1200 mg, Patient 035, 1200 mg, person, 24 hr (Day 2), read-out: Concentration) of the same molecule?
A: The concentration at 24 hr was 261 µM.

Q: What about the concentration at 168 h (oral, 1200 mg, Patient 035, 1200 mg, person, 168 hr (Day 8), read-out: Concentration) of the same molecule?
A: The concentration at 168 h was 254 µM.

Q: And the concentration at 170 h (oral, 1200 mg, Patient 035, 1200 mg, person, 170 hr, read-out: Concentration)?
A: The concentration at 170 h was 460 µM.

Q: What about the concentration at 171 h (oral, 1200 mg, Patient 035, 1200 mg, person, 171 hr, read-out: Concentration) of the same molecule?
A: Its concentration at 171 h is 479 µM.

Q: And the concentration at 172 h (oral, 1200 mg, Patient 035, 1200 mg, person, 172 hr, read-out: Concentration)?
A: The concentration at 172 h was 592 µM.

Q: What about the concentration at 192 h (oral, 1200 mg, Patient 035, 1200 mg, person, 192 hr (Day 9), read-out: Concentration) of the same molecule?
A: Its concentration at 192 h is 543 µM.

Q: What about the concentration at 336 hr (oral, 1200 mg, Patient 035, 1200 mg, person, read-out: Concentration) of the same molecule?
A: Its concentration at 336 hr is 476 µM.

Q: And the concentration at 338 hr (oral, 1200 mg, Patient 035, 1200 mg, person, 338 hr, read-out: Concentration)?
A: Its concentration at 338 hr is 570 µM.

Q: What about the concentration at 339 hr (oral, 1200 mg, Patient 035, 1200 mg, person, 339 hr, read-out: Concentration) of the same molecule?
A: Its concentration at 339 hr is 621 µM.

Q: And the concentration at 340 hr (oral, 1200 mg, Patient 035, 1200 mg, person, 340 hr, read-out: Concentration)?
A: The concentration at 340 hr was 649 µM.

Q: What about the concentration at 360 h (oral, 1200 mg, Patient 035, 1200 mg, person, 360 hr (Day 16), read-out: Concentration) of the same molecule?
A: Its concentration at 360 h is 704 µM.

Q: And the concentration at 504 h (oral, 1200 mg, Patient 035, 1200 mg, person, 504 hr (Day 22), read-out: Concentration)?
A: The concentration at 504 h was 600 µM.

Q: And the concentration at 506 h (oral, 1200 mg, Patient 035, 1200 mg, person, 506 hr, read-out: Concentration)?
A: Its concentration at 506 h is 774 µM.

Q: What about the concentration at 507 h (oral, 1200 mg, Patient 035, 1200 mg, person, 507 hr, read-out: Concentration) of the same molecule?
A: The concentration at 507 h was 925 µM.

Q: And the concentration at 508 h (oral, 1200 mg, Patient 035, 1200 mg, person, 508 hr, read-out: Concentration)?
A: Its concentration at 508 h is 1020 µM.

Q: What about the concentration at 2 hr (po, 1000 mg, Patient 041, 1000 mg weekly oral dose, Time 2 hr, read-out: Concentration (plasma level)) of the same molecule?
A: The concentration at 2 hr was 223 µM.

Q: And the concentration at 3 hr (po, 1000 mg, Patient 041, 1000 mg weekly oral dose, Time 3 hr, read-out: Concentration (plasma level))?
A: The concentration at 3 hr was 233 µM.

Q: And the concentration at 4 hr (po, 1000 mg, Patient 041, 1000 mg weekly oral dose, Time 4 hr, read-out: Concentration (plasma level))?
A: Its concentration at 4 hr is 207 µM.

Q: What about the concentration at 24 hr (po, 1000 mg, Patient 041, 1000 mg weekly oral dose, Time 24 hr (Day 2), read-out: Concentration (plasma level)) of the same molecule?
A: Its concentration at 24 hr is 175 µM.

Q: What about the concentration at 168 hr (po, 1000 mg, Patient 041, 1000 mg weekly oral dose, Time 168 hr (Day 8), read-out: Concentration (plasma level)) of the same molecule?
A: Its concentration at 168 hr is 171 µM.

Q: And the concentration at 170 hr (po, 1000 mg, Patient 041, 1000 mg weekly oral dose, Time 170 hr, read-out: Concentration (plasma level))?
A: Its concentration at 170 hr is 342 µM.

Q: What about the concentration at 171 hr (po, 1000 mg, Patient 041, 1000 mg weekly oral dose, Time 171 hr, read-out: Concentration (plasma level)) of the same molecule?
A: Its concentration at 171 hr is 413 µM.

Q: What about the concentration at 172 hr (po, 1000 mg, Patient 041, 1000 mg weekly oral dose, Time 172 hr, read-out: Concentration (plasma level)) of the same molecule?
A: Its concentration at 172 hr is 357 µM.

Q: And the concentration at 192 hr (po, 1000 mg, Patient 041, 1000 mg weekly oral dose, Time 192 hr (Day 9), read-out: Concentration (plasma level))?
A: Its concentration at 192 hr is 396 µM.

Q: What about the concentration at 336 h (po, 1000 mg, Patient 041, 1000 mg weekly oral dose, Time 336 hr (Day 15), read-out: Concentration (plasma level)) of the same molecule?
A: The concentration at 336 h was 294 µM.

Q: And the concentration at 338 hr (po, 1000 mg, Patient 041, 1000 mg weekly oral dose, Time 338 hr, read-out: Concentration (plasma level))?
A: Its concentration at 338 hr is 411 µM.

Q: And the concentration at 339 hr (po, 1000 mg, Patient 041, 1000 mg weekly oral dose, Time 339 hr, read-out: Concentration (plasma level))?
A: Its concentration at 339 hr is 485 µM.

Q: What about the concentration at 340 hr (po, 1000 mg, Patient 041, 1000 mg weekly oral dose, Time 340 hr, read-out: Concentration (plasma level)) of the same molecule?
A: Its concentration at 340 hr is 478 µM.

Q: What about the concentration at 360 hr (po, 1000 mg, Patient 041, 1000 mg weekly oral dose, Time 360 hr (Day 16), read-out: Concentration (plasma level)) of the same molecule?
A: Its concentration at 360 hr is 508 µM.

Q: What about the concentration at 504 hr (po, 1000 mg, Patient 041, 1000 mg weekly oral dose, Time 504 hr (Day 22), read-out: Concentration (plasma level)) of the same molecule?
A: Its concentration at 504 hr is 558 µM.

Q: And the concentration at 506 hr (po, 1000 mg, Patient 041, 1000 mg weekly oral dose, Time 506 hr, read-out: Concentration (plasma level))?
A: The concentration at 506 hr was 674 µM.

Q: What about the concentration at 507 hr (po, 1000 mg, Patient 041, 1000 mg weekly oral dose, Time 507 hr, read-out: Concentration (plasma level)) of the same molecule?
A: The concentration at 507 hr was 748 µM.

Q: And the concentration at 508 hr (po, 1000 mg, Patient 041, 1000 mg weekly oral dose, Time 508 hr, read-out: Concentration (plasma level))?
A: Its concentration at 508 hr is 676 µM.
